ChEMBL document CHEMBL6092141, “Discovery of a proteolysis targeting chimera (PROTAC) as a potent regulator of FOXP3” (2024)
Values belong to the compound of their own block, whether it stands above or below them. The source made the active and inactive calls. The rule behind the calls is not given here. Residues, ends and D or L forms follow the SMILES beside them. *: point of attachment. X1 = Cc1ncsc1-c1ccc(CNC(=O)[C@@H]2C[C@@H](O)CN2C(=O)[C@@H](NC(=O)COCCOCCNC(=O)CCCCCc2cn(CCCC(=O)*)nn2)C(C)(C)C)cc1; X2 = Cc1ncsc1-c1ccc(CNC(=O)[C@@H]2C[C@@H](O)CN2C(=O)[C@@H](NC(=O)CCOCCOCCc2cn(CCCC(=O)*)nn2)C(C)(C)C)cc1; X3 = Cc1ncsc1-c1ccc(CNC(=O)[C@@H]2C[C@@H](O)CN2C(=O)[C@@H](NC(=O)CCCCCc2cn(CCCC(=O)*)nn2)C(C)(C)C)cc1

Experiments:
[1] = Immunomodulatory activity in anti-CD3/CD28-induced C57BL/6 mouse CD4+ T cells isolated from spleen/lymph nodes assessed as reduction in foxp3+ CD4+ IL2/TGF-beta induced T regulatory cells at 2 uM incubated for 72 hrs by fluorescence activated cell sorting analysis (reference value: 32.7 %); assay type: functional; design: scale not given: the % may be the effect or the level left
[2] = Immunomodulatory activity in anti-CD3/CD28-induced C57BL/6 mouse CD4+ T cells isolated from spleen/lymph nodes assessed as reduction in foxp3+ CD4+ IL2/TGF-beta induced T regulatory cells at 2 uM incubated for 48 hrs by fluorescence activated cell sorting analysis (reference value: 6.56 %); assay type: functional; design: scale not given: the % may be the effect or the level left
[3] = Immunomodulatory activity in anti-CD3/CD28-induced C57BL/6 mouse CD4+ T cells isolated from spleen/lymph nodes assessed as reduction in foxp3+ CD4+ IL2/TGF-beta induced T regulatory cells at 1 uM incubated for 72 hrs by fluorescence activated cell sorting analysis (reference value: 32.7 %); assay type: functional; design: scale not given: the % may be the effect or the level left
CD4+ T cell [4] = assay: Immunomodulatory activity in anti-CD3/CD28-induced C57BL/6 mouse CD4+ T cells isolated from spleen/lymph nodes assessed as reduction in Foxp3 mRNA expression in IL2/TGF-beta induced T regulatory cells measured after 72 hrs by RT-qPCR analysis; assay type: functional, cell-based
[5] = Immunomodulatory activity in anti-CD3/CD28-induced C57BL/6 mouse CD4+ T cells isolated from spleen/lymph nodes assessed as reduction in foxp3+ CD4+ IL2/TGF-beta induced T regulatory cells at 4 uM incubated for 72 hrs by fluorescence activated cell sorting analysis (reference value: 32.7 %); assay type: functional; design: scale not given: the % may be the effect or the level left
[6] = Immunomodulatory activity in anti-CD3/CD28-induced C57BL/6 mouse CD4+ T cells isolated from spleen/lymph nodes assessed as reduction in foxp3+ CD4+ IL2/TGF-beta induced T regulatory cells at 1 uM incubated for 48 hrs by fluorescence activated cell sorting analysis (reference value: 6.56 %); assay type: functional; design: scale not given: the % may be the effect or the level left
CD4+ T cell [7] = assay: Immunomodulatory activity in anti-CD3/CD28-induced C57BL/6 mouse CD4+ T cells isolated from spleen/lymph nodes assessed as reduction in Foxp3 protein expression in IL2/TGF-beta induced T regulatory cells at 1 to 4 uM measured after 72 hrs by Western blot analysis; assay type: functional, cell-based; conditions: dose 1-4 µM
[8] = target: T1, von Hippel-Lindau disease tumor suppressor/Forkhead box protein P3 (Homo sapiens) (UniProt P40337+Q9BZS1); assay: PROTAC activity at VHL/Foxp3 (unknown origin) transfected in HEK293T cells assessed as induction of Foxp3 degradation by measuring reduction in protein level at 1 uM measured after 24 to 48 hrs by Western blot analysis; assay type: cell-based; conditions: time 24-48 hrs
T1 sequence (P40337 whole entry, looked up): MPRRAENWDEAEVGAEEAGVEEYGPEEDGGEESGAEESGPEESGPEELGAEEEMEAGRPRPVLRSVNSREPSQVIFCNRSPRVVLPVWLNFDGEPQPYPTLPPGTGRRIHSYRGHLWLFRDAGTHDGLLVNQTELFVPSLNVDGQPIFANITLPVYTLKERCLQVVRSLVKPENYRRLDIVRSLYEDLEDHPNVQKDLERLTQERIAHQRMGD
T1 sequence (Q9BZS1 whole entry, looked up): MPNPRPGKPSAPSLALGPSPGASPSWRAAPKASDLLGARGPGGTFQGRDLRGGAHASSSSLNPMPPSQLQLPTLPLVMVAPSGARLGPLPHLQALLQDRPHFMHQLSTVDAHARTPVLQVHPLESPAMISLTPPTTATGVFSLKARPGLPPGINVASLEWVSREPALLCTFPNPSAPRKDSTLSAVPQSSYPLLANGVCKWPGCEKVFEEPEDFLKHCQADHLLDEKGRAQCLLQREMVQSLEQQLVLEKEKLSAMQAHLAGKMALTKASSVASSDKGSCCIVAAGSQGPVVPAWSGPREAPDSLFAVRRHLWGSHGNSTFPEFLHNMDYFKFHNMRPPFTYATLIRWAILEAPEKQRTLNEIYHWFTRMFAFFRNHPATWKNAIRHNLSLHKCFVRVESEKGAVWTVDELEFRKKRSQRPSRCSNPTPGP

[9] = Immunomodulatory activity in anti-CD3/CD28-induced C57BL/6 mouse CD4+ T cells isolated from spleen/lymph nodes assessed as reduction in foxp3+ CD4+ IL2/TGF-beta induced T regulatory cells at 4 uM incubated for 48 hrs by fluorescence activated cell sorting analysis (reference value: 6.56 %); assay type: functional; design: scale not given: the % may be the effect or the level left
[10] = target: T1, von Hippel-Lindau disease tumor suppressor/Forkhead box protein P3 (Homo sapiens); assay: PROTAC activity at VHL/Foxp3 (unknown origin) transfected in HEK293T cells assessed as induction of Foxp3 degradation by measuring reduction in protein level at 3 uM incubated for 48 hrs in presence of MG132 by Western blot analysis; assay type: cell-based
HeLa = assay: Inhibition of HA-tagged Foxp3 (unknown origin) nuclear translocation transfected in human HeLa cells at 1 uM incubated for 24 hrs by DAPI staining based confocal microscopic analysis; assay type: cell-based
CD4+ T cell [11] = assay: Immunomodulatory activity in anti-CD3/CD28-induced C57BL/6 mouse CD4+ T cells isolated from spleen/lymph nodes assessed as increase in IL2 mRNA expression in IL2/TGF-beta induced T regulatory cells measured after 72 hrs by RT-qPCR analysis; assay type: functional, cell-based
[12] = Immunomodulatory activity in anti-CD3/CD28-induced C57BL/6 mouse CD4+ T cells isolated from spleen/lymph nodes assessed as reduction in foxp3+ CD4+ IL2/TGF-beta induced T regulatory cells at 3 uM incubated for 72 hrs by fluorescence activated cell sorting analysis (reference value: 32.7 %); assay type: functional; design: scale not given: the % may be the effect or the level left
CD4+ T cell [13] = assay: Immunomodulatory activity in anti-CD3/CD28-induced C57BL/6 mouse CD4+ T cells isolated from spleen/lymph nodes assessed as increase in IFN-gamma mRNA expression in IL2/TGF-beta induced T regulatory cells measured after 72 hrs by RT-qPCR analysis; assay type: functional, cell-based
HEK293T [14] = assay: Inhibition of HA-tagged Foxp3 (unknown origin) nuclear translocation transfected in a HEK293T cells at 1 to 3 uM incubated for 24 hrs by DAPI staining based confocal microscopic analysis; assay type: cell-based; conditions: Homo sapiens, dose 1-3 µM
[15] = target: T1, von Hippel-Lindau disease tumor suppressor/Forkhead box protein P3 (Homo sapiens); assay: PROTAC activity at VHL/Foxp3 (unknown origin) transfected in HEK293T cells assessed as induction of Foxp3 degradation by measuring reduction in protein level at 500 to 1000 nM incubated for 24 hrs by Western blot analysis; assay type: cell-based; conditions: dose 500-1000 nM
HEK293T [16] = assay: Inhibition of HA-tagged Foxp3 (unknown origin) nuclear translocation transfected in a HEK293T cells at 50 to 100 uM incubated for 24 hrs by DAPI staining based confocal microscopic analysis; assay type: cell-based; conditions: Homo sapiens, dose 50-100 µM
[17] = target: T1, von Hippel-Lindau disease tumor suppressor/Forkhead box protein P3 (Homo sapiens); assay: PROTAC activity at VHL/Foxp3 (unknown origin) transfected in HEK293T cells assessed as induction of Foxp3 degradation by measuring reduction in protein level at 10 to 1000 nM incubated for 24 hrs by Western blot analysis; assay type: cell-based; conditions: dose 10-1000 nM

Activity [8]: Active
Activity [10]: inactive
Activity [15]: Active
Compound: CSCC[C@H](NC(=O)[C@H](C)NC(=O)[C@H](Cc1ccccc1)NC(=O)[C@H](Cc1ccccc1)NC(=O)[C@@H]1CCCN1C(=O)[C@H](Cc1c[nH]c2ccccc12)NC(=O)[C@H](CCSC)NC(=O)[C@H](CCCCN)NC(=O)[C@H](CCCNC(=N)N)NC(=O)[C@H](Cc1ccccc1)NC(=O)[C@H](CO)NC(=O)[C@H](CCC(N)=O)NC(=O)[C@H](Cc1ccccc1)NC(=O)[C@H](CC(=O)O)NC(=O)[C@H](CCCNC(=N)N)NC(=O)CCCn1cc(CCCCCC(=O)NCCOCCOCC(=O)N[C@H](C(=O)N2C[C@H](O)C[C@H]2C(=O)NCc2ccc(-c3scnc3C)cc2)C(C)(C)C)nn1)C(N)=O (X1-RDFQSFRKMWPFFAM-NH2)
Activity [1]: 25.8%
Activity [2]: 5.03%
Activity [3]: 28.8%
Activity (CD4+ T cell [4]): Active
Activity [5]: 15.6%
Activity [6]: 6.08%
Activity (CD4+ T cell [7]): Active
Activity [9]: 4.87%
inhibition (HeLa): Active
Activity (CD4+ T cell [11]): Active
Activity [12]: 20.2%
Activity (CD4+ T cell [13]): Active
inhibition (HEK293T [14]): Active; Comparable Effect To 100 Um Of P60 Peptide Observed At 1 Um

Compound: H-RDFQSFRKMWPFFAM-OH
inhibition (HEK293T [16]): Active

Activity [17]: inactive
Compound: CSCC[C@H](NC(=O)[C@H](C)NC(=O)[C@H](Cc1ccccc1)NC(=O)[C@H](Cc1ccccc1)NC(=O)[C@@H]1CCCN1C(=O)[C@H](Cc1c[nH]c2ccccc12)NC(=O)[C@H](CCSC)NC(=O)[C@H](CCCCN)NC(=O)[C@H](CCCNC(=N)N)NC(=O)[C@H](Cc1ccccc1)NC(=O)[C@H](CO)NC(=O)[C@H](CCC(N)=O)NC(=O)[C@H](Cc1ccccc1)NC(=O)[C@H](CC(=O)O)NC(=O)[C@H](CCCNC(=N)N)NC(=O)CCCn1cc(CCCCCC(=O)N[C@H](C(=O)N2C[C@H](O)C[C@H]2C(=O)NCc2ccc(-c3scnc3C)cc2)C(C)(C)C)nn1)C(N)=O (X3-RDFQSFRKMWPFFAM-NH2)
inhibition (HeLa): inactive

Activity [17]: inactive
Compound: CSCC[C@H](NC(=O)[C@H](C)NC(=O)[C@H](Cc1ccccc1)NC(=O)[C@H](Cc1ccccc1)NC(=O)[C@@H]1CCCN1C(=O)[C@H](Cc1c[nH]c2ccccc12)NC(=O)[C@H](CCSC)NC(=O)[C@H](CCCCN)NC(=O)[C@H](CCCNC(=N)N)NC(=O)[C@H](Cc1ccccc1)NC(=O)[C@H](CO)NC(=O)[C@H](CCC(N)=O)NC(=O)[C@H](Cc1ccccc1)NC(=O)[C@H](CC(=O)O)NC(=O)[C@H](CCCNC(=N)N)NC(=O)CCCn1cc(CCOCCOCCC(=O)N[C@H](C(=O)N2C[C@H](O)C[C@H]2C(=O)NCc2ccc(-c3scnc3C)cc2)C(C)(C)C)nn1)C(N)=O (X2-RDFQSFRKMWPFFAM-NH2)
inhibition (HeLa): inactive
